Experimental data: ChEMBL document CHEMBL1201862, “PubChem BioAssay data set” (2004)
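Step 1: Grow cells in 96-well plates. Step 2: Expose to compound for 48 hours at 5 concentrations. Step 3: Interpolate endpoints linearly; if unreached, use highest concentration. GI50 = concentration required for 50% inhibition of growth.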 Active and inactive are the calls of the source. No stated cut-off is given here; in the data, active = GI50 up to about 1.1 µM and inactive = higher.

Experiments:
Assay in all cases: NCI-60 cell line screen, 48 h
SNB-75 = tested on: SNB-75
SF-268 = tested on: SF-268
786-0 = tested on: 786-0
Hs-578T = tested on: Hs-578T
HOP-92 = tested on: HOP-92
K562 = tested on: K562
CAKI-1 = tested on: CAKI-1
MDA-MB-435 = tested on: MDA-MB-435
LOX IMVI = tested on: LOX IMVI
T47D = tested on: T47D
UO-31 = tested on: UO-31
EKVX = tested on: EKVX
NCI-H226 = tested on: NCI-H226
TK-10 = tested on: TK-10
UACC-257 = tested on: UACC-257
SN12C = tested on: SN12C
OVCAR-4 = tested on: OVCAR-4
MCF7 = tested on: MCF7
OVCAR-3 = tested on: OVCAR-3

Row | SMILES | GI50 (SNB-75) | GI50 (SF-268) | GI50 (786-0) | GI50 (Hs-578T) | GI50 (HOP-92) | GI50 (K562) | GI50 (CAKI-1) | GI50 (MDA-MB-435) | GI50 (LOX IMVI) | GI50 (T47D) | GI50 (UO-31) | GI50 (EKVX) | GI50 (NCI-H226) | GI50 (TK-10) | GI50 (UACC-257) | GI50 (SN12C) | GI50 (OVCAR-4) | GI50 (MCF7) | GI50 (OVCAR-3)
1 | COc1ccc2o/c(=N/c3ccccc3)c(C(N)=O)cc2c1 | 53.7 µM (inactive) | 47.3 µM (inactive) | > 57.8 µM (inactive) | 42.9 µM (inactive) | > 50.9 µM (inactive) | > 100 µM (inactive) | > 71.3 µM (inactive) | 3.45 µM (inactive) | > 100 µM (inactive) | > 100 µM (inactive) | > 36.7 µM (inactive) | > 25.5 µM (inactive) | > 85.3 µM (inactive) | > 49.2 µM (inactive) | > 100 µM (inactive) | > 100 µM (inactive) | > 100 µM (inactive) | 45.9 µM (inactive) | > 100 µM (inactive)
2 | COC(=O)C1=C(C)C=C(N2CCOCC2)C(C(=O)OC)C1c1ccccc1 (stereo not given) | > 10 µM (inactive) | > 10 µM (inactive) | > 10 µM (inactive) | > 10 µM (inactive) | > 10 µM (inactive) | > 10 µM (inactive) | > 10 µM (inactive) | > 10 µM (inactive) | > 10 µM (inactive) | > 10 µM (inactive) | > 10 µM (inactive) | > 10 µM (inactive) | > 10 µM (inactive) | > 10 µM (inactive) | > 10 µM (inactive) | > 10 µM (inactive) | > 10 µM (inactive) | > 10 µM (inactive) | > 10 µM (inactive)
3 | [N-]=[N+]=Nc1ccc2c(c1)Sc1ccccc1N2CCCCCl | > 100 µM (inactive) | 41.9 µM (inactive) | > 100 µM (inactive) | 35.8 µM (inactive) | 32.2 µM (inactive) | 14 µM (inactive) | > 100 µM (inactive) | 51.4 µM (inactive) | 36.8 µM (inactive) | 44.7 µM (inactive) | > 100 µM (inactive) | 56 µM (inactive) | 48.9 µM (inactive) | > 100 µM (inactive) | 71.9 µM (inactive) | > 100 µM (inactive) | 80.4 µM (inactive) | 14.9 µM (inactive) | 82.2 µM (inactive)
4 | CC(=O)OCC1OC(n2c(Br)nc3c2c(=O)n(C)c(=O)n3C)C(OC(C)=O)C1OC(C)=O (stereo not given) | 85.1 µM (inactive) | 62.7 µM (inactive) | 89.9 µM (inactive) | 45.8 µM (inactive) | 83 µM (inactive) | 53.3 µM (inactive) | > 100 µM (inactive) | 29.4 µM (inactive) | 43.2 µM (inactive) | > 100 µM (inactive) | > 100 µM (inactive) | 64.7 µM (inactive) | 71.6 µM (inactive) | > 100 µM (inactive) | 50.2 µM (inactive) | 79.4 µM (inactive) | 27.5 µM (inactive) | 69.8 µM (inactive) | 48.1 µM (inactive)
5 | [N-]=[N+]=C(C(=O)OCC#CCOC(=O)C(=[N+]=[N-])S(=O)(=O)c1ccccc1)S(=O)(=O)c1ccccc1 | > 10 µM (inactive) | > 10 µM (inactive) | > 10 µM (inactive) | > 10 µM (inactive) | > 10 µM (inactive) | > 10 µM (inactive) | > 10 µM (inactive) | > 10 µM (inactive) | > 10 µM (inactive) | > 10 µM (inactive) | 0.2 µM (active) | > 10 µM (inactive) | > 10 µM (inactive) | > 10 µM (inactive) | > 10 µM (inactive) | > 10 µM (inactive) | > 10 µM (inactive) | > 10 µM (inactive) | > 10 µM (inactive)
6 | N#CS/C(C(Cl)=C(Cl)Cl)=C(/Cl)[N+](=O)[O-] | 17.4 µM (inactive) | 3.17 µM (inactive) | 1.68 µM (inactive) | 6.1 µM (inactive) | 2.37 µM (inactive) | 0.603 µM (active) | 0.977 µM (active) | 1.66 µM (inactive) | 0.904 µM (active) | 1.99 µM (inactive) | 1.63 µM (inactive) | 4.46 µM (inactive) | 7.66 µM (inactive) | 2.23 µM (inactive) | 1.75 µM (inactive) | 2.21 µM (inactive) | 1.95 µM (inactive) | 3.9 µM (inactive) | 1.53 µM (inactive)
7 | Nc1nc(Sc2ccc([N+](=O)[O-])cn2)c2nc[nH]c2n1 | 5.2 µM (inactive) | 4.35 µM (inactive) | 5.74 µM (inactive) | 15.3 µM (inactive) | 3.6 µM (inactive) | 7.01 µM (inactive) | 7.13 µM (inactive) | 4.79 µM (inactive) | 2.52 µM (inactive) | 4.36 µM (inactive) | 3.99 µM (inactive) | 7.53 µM (inactive) | 12.6 µM (inactive) | 9.08 µM (inactive) | 18 µM (inactive) | 4.74 µM (inactive) | 9.18 µM (inactive) | 5.89 µM (inactive) | 8.93 µM (inactive)
8 | ONCCCn1cnc2c(NC3CC3)ncnc21 | > 100 µM (inactive) | > 100 µM (inactive) | > 100 µM (inactive) | > 100 µM (inactive) | > 100 µM (inactive) | > 100 µM (inactive) | > 100 µM (inactive) | > 100 µM (inactive) | > 100 µM (inactive) | > 100 µM (inactive) | > 100 µM (inactive) | > 100 µM (inactive) | > 100 µM (inactive) | > 100 µM (inactive) | > 100 µM (inactive) | > 100 µM (inactive) | > 100 µM (inactive) | > 100 µM (inactive) | > 100 µM (inactive)
9 | CCC/C(Cl)=N/OC(NC(=O)OCC)(C(F)(F)F)C(F)(F)F | 82.4 µM (inactive) | 19.9 µM (inactive) | 17.4 µM (inactive) | 34.5 µM (inactive) | 20.3 µM (inactive) | 25.6 µM (inactive) | 20.6 µM (inactive) | 18.6 µM (inactive) | 17.9 µM (inactive) | 45.4 µM (inactive) | 19.6 µM (inactive) | 20.9 µM (inactive) | > 100 µM (inactive) | 19 µM (inactive) | 20.6 µM (inactive) | 16.7 µM (inactive) | 17.6 µM (inactive) | 23.6 µM (inactive) | 15.8 µM (inactive)
10 | CN(C)c1ccc(/C=c2/c3ccccc3n3c2cc(/C=C/c2ccccc2)[n+]3C)cc1 | 0.033 µM (active) | 0.114 µM (active) | 0.0815 µM (active) | 0.0287 µM (active) | 0.0358 µM (active) | 0.0951 µM (active) | 1.28 µM (inactive) | 0.135 µM (active) | 0.12 µM (active) | 0.0164 µM (active) | 0.344 µM (active) | 0.265 µM (active) | 0.11 µM (active) | 0.393 µM (active) | 0.339 µM (active) | 0.0841 µM (active) | 0.286 µM (active) | 0.147 µM (active) | 0.141 µM (active)
11 | Cc1ccnc2[nH]c3ccccc3c(=O)c12 | 16.7 µM (inactive) | 18.9 µM (inactive) | 41.2 µM (inactive) | 16.3 µM (inactive) | 41.6 µM (inactive) | 33.2 µM (inactive) | 8.41 µM (inactive) | 19.6 µM (inactive) | 19.5 µM (inactive) | 31.3 µM (inactive) | 18 µM (inactive) | 28.8 µM (inactive) | 24.7 µM (inactive) | 10.1 µM (inactive) | 39.4 µM (inactive) | 21.3 µM (inactive) | 29 µM (inactive) | 21.8 µM (inactive) | 23.7 µM (inactive)
12 | Cc1ccc(C(=O)CC(O)(C(F)(F)F)C(F)(F)F)cc1[N+](=O)[O-] | 18.3 µM (inactive) | 9.42 µM (inactive) | 12.1 µM (inactive) | 9.46 µM (inactive) | 9.4 µM (inactive) | 2.79 µM (inactive) | 2.36 µM (inactive) | 8.41 µM (inactive) | 2.07 µM (inactive) | 13.5 µM (inactive) | 5.81 µM (inactive) | 17.9 µM (inactive) | 20.2 µM (inactive) | 17.6 µM (inactive) | 3.21 µM (inactive) | 10 µM (inactive) | 15.8 µM (inactive) | 3.14 µM (inactive) | 2.2 µM (inactive)
13 | Cc1ccc2nc(-c3ccc(NC(=O)c4ccc(N)cc4)c(S(=O)(=O)O)c3)sc2c1 | > 100 µM (inactive) | > 100 µM (inactive) | > 100 µM (inactive) | > 100 µM (inactive) | > 100 µM (inactive) | > 100 µM (inactive) | > 100 µM (inactive) | > 100 µM (inactive) | > 100 µM (inactive) | > 100 µM (inactive) | > 100 µM (inactive) | > 100 µM (inactive) | > 100 µM (inactive) | > 100 µM (inactive) | > 100 µM (inactive) | > 100 µM (inactive) | > 100 µM (inactive) | > 100 µM (inactive) | > 100 µM (inactive)
14 | C/C(=N\NC(=S)N(C)C)c1ccccn1 | 0.486 µM (active) | < 0.0317 µM (active) | < 0.0118 µM (active) | 3.7 µM (inactive) | 0.498 µM (active) | < 0.01 µM (active) | 0.186 µM (active) | 0.221 µM (active) | < 0.01 µM (active) | < 0.01 µM (active) | 0.122 µM (active) | 0.0284 µM (active) | 0.148 µM (active) | 0.564 µM (active) | < 0.01 µM (active) | 0.057 µM (active) | < 0.01 µM (active) | < 0.01 µM (active) | < 0.01 µM (active)
15 | CSc1ccccc1P(CCP(c1ccccc1SC)c1ccccc1SC)c1ccccc1SC | 13 µM (inactive) | 36.4 µM (inactive) | 15.6 µM (inactive) | 28.7 µM (inactive) | 61.1 µM (inactive) | 1.67 µM (inactive) | > 84.5 µM (inactive) | 31.5 µM (inactive) | 22.6 µM (inactive) | 12.4 µM (inactive) | > 44.4 µM (inactive) | 19.6 µM (inactive) | 10.4 µM (inactive) | > 69 µM (inactive) | 13.5 µM (inactive) | 38.3 µM (inactive) | 14.3 µM (inactive) | 1.95 µM (inactive) | 0.543 µM (active)
